Measurements from patent publication US20220008425A1, “Pharmaceutical Composition for Treating B-Cell Lymphoma” (FUNDAN UNIVERSITY SHANGHAI CANER CENTER, priority 2018, published 2022).
“Also recorded” adds a separate entry of the source.

Tests used:
[1] = system: AKT phosphorylation, SOX2, CDK6 and CSC-associated molecules in LY8-RCHO cells; assay: Immunoblot analysis; type: cell-based, human
NU-DUL-1-RCHO-Luc cells = assay: Transplantation model, bioluminescence tumor growth and survival; type: in vivo; conditions: SCID mice bearing NU-DUL-1-RCHO-Luc cells
Excerpt: (§1) Construction of a transplantation model: we transduced LY8-RCHO cells and NU-DUL-1-RCHO cells with lentiviruses overexpressing the firefly luciferase gene to generate stable cells expressing firefly luciferase, referred to as LY8-RCHO-Luc cells and NU-DUL-1-RCHO-Luc cells, respectively. 8-week-old female SCID mice were purchased from SLAC (Shanghai laboratory animal center). The LY8-RCHO-Luc cells and NU-DUL-1-RCHO-Luc cells were resuspended in PBS prior to intraperitoneal injection of 1.5×10^7 cells per mouse. After intraperitoneal injection of the LY8-RCHO-Luc cells, mice were randomized into 6 groups (7 mice in every group) and given saline, R-CHOP, duvelisib, abemaciclib, R-CHOP+duvelisib, and R-CHOP+abemaciclib, respectively. Mice inoculated with the NU-DUL-1-RCHO-Luc cells were randomly divided into 6 groups (7 mice in every group), and were given saline, R-CHOP, duvelisib, AZD4547, R-CHOP+duvelisib, and R-CHOP+AZD4547, respectively. The drug dosing method based on one course of clinical use is shown in Table 1; the R-CHOP regimen was clinically used to treat DLBCL, while duvelisib, abemaciclib, and AZD4547 were tested in clinical trials (associated NCT numbers are NCT02576275, NCT01739309, and […], respectively). Tumor growth was monitored by bioluminescence at day 50 and day 90 after inoculation. For in vivo luminescence imaging, D-luciferin (Promega, Madison, Wis.) was intraperitoneally injected into mice (150 mg/kg). After 10 minutes, the mice were anesthetized by intraperitoneal injection of pentobarbital (50 mg/kg) and then their bioluminescence intensity was examined by using an In Vivo MS FX PRO system (Bruker Corporation, Billerica, Mass.). Luminescence images were captured with an exposure time of 30 seconds and the signal intensity of the tumor was measured by using Bruker MI software. The survival time of each mouse was recorded. Surviving mice were euthanized and dissected 120 days after inoculation and no intraperitoneal tumors were found. Tumor tissue was collected from moribund mice and fixed with 4% formalin. All animal experiments were performed in strict accordance with the experiment protocol approved by the animal ethics committee of Shanghai school of medicine of Fudan university.

LY8-RCHO-Luc cells = assay: as above; type: in vivo; conditions: SCID mice bearing LY8-RCHO-Luc cells; for tumor growth (total photon flux): dosing per Table 1
Excerpt: as §1

NU-DUL-1-RCHO cells [2] = assay: EdU cell proliferation assay; type: cell-based, human; conditions: 1 μM
Experimental: (§2) RCHO-resistant DLBCL cells were pretreated with duvelisib, abemaciclib, or AZD4547 at a concentration of 1 μM for 48 or 120 hours prior to EdU assay. For 120 hours of the study, the medium was replaced with a fresh medium containing 1 μM of inhibitor at 48 hours. EdU cell proliferation assay was performed by using a cell-light EdU Apollo643 in vitro flow cytometry kit (RiboBio Inc., Guangzhou, China) according to its instructions. Next, we assayed EdU staining positive cells on a Cytomics FC500 MPL flow cytometer (Beckman Coulter, Brea, Calif.).

LY8-RCHO cells [3] = assay: EdU cell proliferation assay; type: cell-based, human; conditions: 1 μM
Experimental: as §2

NU-DUL-1-RCHO cells [4] = assay: Aldefluor analysis (ALDH1+ cells); type: cell-based, human
Experimental: (§3) ALDH1 is a selectable marker for a variety of normal and cancer stem cells, including hematopoietic stem cells. Therefore, we assessed the number of cancer stem cells in hematopoietic malignancies by detecting ALDH1 positive cells. As previously described, we used an ALDEFLUOR™ kit (StemCell Technologies, Vancouver, BC, CA) to detect populations with high ALDH1 activity. Briefly, 1×10^6 cells were suspended in 1 mL of assay buffer containing 1 μM of BAAA, a substrate of […]. Suspended cells were then equally divided into two samples, one as a negative control and the other as a test sample. To form the negative control, […] of DEAB, a specific ALDH inhibitor, was added to one equally-divided sample. Cells were then incubated at 37° C. for 30 minutes prior to flow cytometry analysis.

LY8-RCHO cells [5] = assay: Aldefluor analysis (ALDH1+ cells); type: cell-based, human
Experimental: as §3

[6] = inhibitor combined with R-CHOP, experiment ended at day 120
[7] = regimen or inhibitor used alone, dosing per Table 1

C[C@H](Nc1ncnc2[nH]cnc12)c1cc2cccc(Cl)c2c(=O)n1-c1ccccc1 [duvelisib]
AKT phosphorylation and expression of SOX2 and CDK6 [1]: reduces the expression of SOX2 and CDK6 by inhibiting AKT phosphorylation; also recorded: prevented phosphorylation of AKT and induced degradation of SOX2, thereby reducing expression of CDK6
levels of CSC-associated molecules (OCT4, NANOG, KLF4, c-MYC, CD34, CD133) [1]: significantly reduced levels of CSC-associated molecules in the RCHO-resistant cells
tumor growth (total photon flux) (NU-DUL-1-RCHO-Luc cells; inhibitor combined with R-CHOP, dosing per Table 1): completely inhibit tumor growth
survival time (NU-DUL-1-RCHO-Luc cells; [6]): prolong the survival time to the end of the experiment at day 120
survival time (NU-DUL-1-RCHO-Luc cells; [7]): had no efficacy on tumor growth and the survival time
tumor growth (total photon flux) (NU-DUL-1-RCHO-Luc cells; [7]): had no efficacy on tumor growth and the survival time
tumor growth (total photon flux) (LY8-RCHO-Luc cells; inhibitor combined with R-CHOP): significantly inhibited tumor growth; also recorded: completely inhibited tumor development
survival (LY8-RCHO-Luc cells; [6]): prolonged the survival rate compared with R-CHOP or an inhibitor alone; also recorded: all treated mice survived until the end of the experiment at day 120
tumor growth (total photon flux) (LY8-RCHO-Luc cells; regimen or inhibitor used alone, vs saline, day 50 and 90): neither duvelisib nor abemaciclib alone inhibited tumor growth or prolonged the survival rate; also recorded: accelerated tumor growth compared with normal saline, although this difference was not statistically significant
cell proliferation (EdU incorporation) (NU-DUL-1-RCHO cells [2]; 48 hours): strongly prevented proliferation of LY8-RCHO and NU-DUL-1-RCHO cells
cell proliferation (EdU incorporation) (NU-DUL-1-RCHO cells [2]; 120 hours): significantly promoted proliferation of cells at 120 hours
cell proliferation (EdU incorporation) (LY8-RCHO cells [3]; 48 hours): strongly prevented proliferation of LY8-RCHO and NU-DUL-1-RCHO cells
cell proliferation (EdU incorporation) (LY8-RCHO cells [3]; 120 hours): significantly promoted proliferation of cells at 120 hours
proportion of ALDH1+ cells (CSCs) (NU-DUL-1-RCHO cells [4]): significantly reduced ALDH1+ subpopulations in LY8-RCHO and NU-DUL-1-RCHO cells
proportion of ALDH1+ cells (CSCs) (LY8-RCHO cells [5]): significantly reduced ALDH1+ subpopulations in LY8-RCHO and NU-DUL-1-RCHO cells
